Values joined by “and” are separate entries in the source; they are usually repeats but may differ in a detail not shown here. Equal values may be shown once. Toxic doses and inconclusive results are not listed. Rule as the data show it: active = T/C of 150% or more; inactive = T/C below 125%.
Tested on: L1210 leukemia ip in BDF1 mice, survival T/C
Assay: NCI In Vivo Anticancer Drug Screen. Data for tumor model L1210 Leukemia (intraperitoneal) in B6D2F1 (BDF1) mice
Conditions: endpoint: mean survival time, higher = longer survival
Procedure, shortened: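 In this screen, tumor-bearing mice given compound are compared to those given vehicle, and their survival values are reported as a treated-to-control quotient.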

[1] = dose: 100.0 mg/kg/injection, schedule: Q04DX002 (ip), vehicle: Klucel (hydroxypropylcellulose) (HPC)
[2] = dose: 100.0 mg/kg/injection, schedule: Q04DX003 (ip), vehicle: Klucel (hydroxypropylcellulose) (HPC)
[3] = dose: 200.0 mg/kg/injection, schedule: Q04DX002 (ip), vehicle: Klucel (hydroxypropylcellulose) (HPC)
[4] = dose: 400.0 mg/kg/injection, schedule: Q04DX002 (ip), vehicle: Klucel (hydroxypropylcellulose) (HPC)
[5] = dose: 100.0 mg/kg/injection, schedule: Q01DX001 (ip), vehicle: saline
[6] = dose: 200.0 mg/kg/injection, schedule: Q01DX001 (ip), vehicle: saline
[7] = dose: 400.0 mg/kg/injection, schedule: Q01DX001 (ip), vehicle: saline
[8] = dose: 100.0 mg/kg/injection, schedule: Q04DX003 (ip), vehicle: saline with Tween-80
[9] = dose: 200.0 mg/kg/injection, schedule: Q04DX003 (ip), vehicle: saline with Tween-80
[10] = dose: 400.0 mg/kg/injection, schedule: Q04DX003 (ip), vehicle: saline with Tween-80
[11] = dose: 100.0 mg/kg/injection, schedule: Q01DX001 (ip), vehicle: carboxymethylcellulose (CMC)
[12] = dose: 200.0 mg/kg/injection, schedule: Q01DX001 (ip), vehicle: carboxymethylcellulose (CMC)
[13] = dose: 400.0 mg/kg/injection, schedule: Q01DX001 (ip), vehicle: carboxymethylcellulose (CMC)
[14] = dose: 200.0 mg/kg/injection, schedule: Q01DX009 (ip), vehicle: saline with Tween-80
[15] = dose: 400.0 mg/kg/injection, schedule: Q01DX009 (ip), vehicle: saline with Tween-80
[16] = dose: 100.0 mg/kg/injection, schedule: Q01DX009 (ip), vehicle: saline with Tween-80

Measured: T/C

COC1OC(CCl)C(OS(C)(=O)=O)C(OC(=O)c2ccccc2)C1OC(=O)c1ccccc1 (configuration not stated)
inactive: dose: 25.0 mg/kg/injection, schedule: Q04DX002 (ip), vehicle: Klucel (hydroxypropylcellulose) (HPC) 102 % of control | dose: 50.0 mg/kg/injection, schedule: Q04DX002 (ip), vehicle: Klucel (hydroxypropylcellulose) (HPC) 97 % of control | [1] 102 % of control

O=C1NC(=S)S/C1=C/c1ccc2c(c1)OCO2
inactive: dose: 7.5 mg/kg/injection, schedule: Q01DX009 (ip), vehicle: saline with Tween-80 93 % of control | dose: 15.0 mg/kg/injection, schedule: Q01DX009 (ip), vehicle: saline with Tween-80 88 % of control | dose: 30.0 mg/kg/injection, schedule: Q01DX009 (ip), vehicle: saline with Tween-80 89 % of control

CN1CCC(OC(=O)C(O)C2CCCCC2)CC1 (configuration not stated)
inactive: [2] 104 % of control | dose: 200.0 mg/kg/injection, schedule: Q04DX003 (ip), vehicle: Klucel (hydroxypropylcellulose) (HPC) 103 % of control

CCCCCCCCN(c1ccc(C#N)cc1)S(=O)(=O)c1ccc(C)cc1
inactive: dose: 75.0 mg/kg/injection, schedule: Q01DX009 (ip), vehicle: Klucel (hydroxypropylcellulose) (HPC) 92 % of control | dose: 150.0 mg/kg/injection, schedule: Q01DX009 (ip), vehicle: Klucel (hydroxypropylcellulose) (HPC) 87 % of control | dose: 300.0 mg/kg/injection, schedule: Q01DX009 (ip), vehicle: Klucel (hydroxypropylcellulose) (HPC) 97 % of control

O=S1(=O)CC(Cl)(Br)C1 (tested in a mixture with another compound)
inactive: [1] 94 % of control | [3] 97 % of control | [4] 89 % of control

CCCCCCCCCCCC(=O)NC(=S)Nc1ccc(C(=O)OCC)cc1
inactive: dose: 100.0 mg/kg/injection, schedule: Q04DX002 (ip), vehicle: saline 93 % of control | dose: 200.0 mg/kg/injection, schedule: Q04DX002 (ip), vehicle: saline 108 % of control | dose: 400.0 mg/kg/injection, schedule: Q04DX002 (ip), vehicle: saline 108 % of control

Oc1ccc(Cl)cc1/C=N/N1CCN(/N=C/c2cc(Cl)ccc2O)CC1
inactive: [5] 90 % of control | [6] 90 % of control | [7] 90 % of control

CN(C(=O)/C=C/C(=O)O)c1ccccc1
inactive: dose: 25.0 mg/kg/injection, schedule: Q01DX009 (ip), vehicle: saline 104 % of control | dose: 50.0 mg/kg/injection, schedule: Q01DX009 (ip), vehicle: saline 110 % of control | dose: 50.0 mg/kg/injection, schedule: Q04DX003 (ip), vehicle: saline with Tween-80 98 % of control | dose: 100.0 mg/kg/injection, schedule: Q01DX009 (ip), vehicle: saline 105 % of control | [8] 101 % of control | dose: 200.0 mg/kg/injection, schedule: Q01DX009 (ip), vehicle: saline 96 % of control | [9] 95 % of control | [10] 97 % of control

OCCSC1=NCCN1
inactive: [11] 97 % of control | dose: 100.0 mg/kg/injection, schedule: Q04DX003 (ip), vehicle: saline 109 % of control | [12] 100 % of control | dose: 200.0 mg/kg/injection, schedule: Q04DX003 (ip), vehicle: saline 103 % of control | [13] 94 % of control

CN(C)C1=C(N2CC2)C(=O)C(N(C)C)=C(N2CC2)C1=O
inactive: dose: 0.09 mg/kg/injection, schedule: Q01DX001 (ip), vehicle: saline 107 % of control | dose: 0.09 mg/kg/injection, schedule: Q01DX009 (ip), vehicle: saline 93 % of control and 116 % of control | dose: 0.09 mg/kg/injection, schedule: Q04DX003 (ip), vehicle: saline 94 % of control and 107 % of control | dose: 0.18 mg/kg/injection, schedule: Q01DX001 (ip), vehicle: saline 108 % of control | dose: 0.18 mg/kg/injection, schedule: Q01DX009 (ip), vehicle: saline 96 % of control and 108 % of control | dose: 0.37 mg/kg/injection, schedule: Q01DX001 (ip), vehicle: saline 97 % of control | dose: 0.37 mg/kg/injection, schedule: Q01DX009 (ip), vehicle: saline 114 % of control and 116 % of control | dose: 0.75 mg/kg/injection, schedule: Q01DX001 (ip), vehicle: saline 98 % of control | dose: 0.75 mg/kg/injection, schedule: Q01DX009 (ip), vehicle: saline 110 % of control | dose: 1.5 mg/kg/injection, schedule: Q01DX001 (ip), vehicle: saline 115 % of control | dose: 1.5 mg/kg/injection, schedule: Q01DX009 (ip), vehicle: saline 93 % of control

Cc1cc2nc(C(O)C(O)C(O)C(O)c3nc4cc(C)c(C)cc4[nH]3)[nH]c2cc1C (configuration not stated)
inactive: dose: 100.0 mg/kg/injection, schedule: Q01DX001 (ip), vehicle: other 98 % of control | dose: 200.0 mg/kg/injection, schedule: Q01DX001 (ip), vehicle: other 87 % of control | dose: 400.0 mg/kg/injection, schedule: Q01DX001 (ip), vehicle: other 104 % of control

Cc1ncc(C(=O)c2ccccc2)n1Cc1ccccc1
inactive: dose: 100.0 mg/kg/injection, schedule: Q01DX001 (ip), vehicle: saline with Tween-80 88 % of control | [8] 94 % of control | dose: 200.0 mg/kg/injection, schedule: Q01DX001 (ip), vehicle: saline with Tween-80 90 % of control | [14] 94 % of control and 107 % of control | [9] 92 % of control | dose: 400.0 mg/kg/injection, schedule: Q01DX001 (ip), vehicle: saline with Tween-80 95 % of control | [15] 96 % of control and 100 % of control | [10] 90 % of control

O=C(OCC1OCOC1C1OCOC1COC(=O)c1ccccc1)c1ccccc1 (configuration not stated)
inactive: [5] 96 % of control | [6] 94 % of control | [7] 88 % of control

Cn1cc(/C=C\[N+](=O)[O-])c2ccccc21
inactive: [5] 98 % of control | [6] 98 % of control | [7] 98 % of control

CS(=O)(=O)c1ccc(F)c([N+](=O)[O-])c1
inactive: dose: 25.0 mg/kg/injection, schedule: Q04DX003 (ip), vehicle: Klucel (hydroxypropylcellulose) (HPC) 92 % of control | dose: 50.0 mg/kg/injection, schedule: Q04DX003 (ip), vehicle: Klucel (hydroxypropylcellulose) (HPC) 92 % of control | [2] 95 % of control

CCCCCCCCCCCC(=O)NC(=S)Nc1ccc(N(C)C)cc1
inactive: [1] 93 % of control | [3] 108 % of control | [4] 90 % of control

O=C(Nc1cccc(C(F)(F)F)c1)c1cc(C(O)C2CCCCN2)c2cccc(C(F)(F)F)c2n1 (configuration not stated)
inactive: dose: 100.0 mg/kg/injection, schedule: Q01DX009 (sc), vehicle: olive oil, sesame oil, peanut oil 105 % of control | dose: 100.0 mg/kg/injection, schedule: Q04DX003 (sc), vehicle: olive oil, sesame oil, peanut oil 102 % of control | dose: 200.0 mg/kg/injection, schedule: Q01DX009 (sc), vehicle: olive oil, sesame oil, peanut oil 97 % of control | dose: 200.0 mg/kg/injection, schedule: Q04DX003 (sc), vehicle: olive oil, sesame oil, peanut oil 97 % of control | dose: 400.0 mg/kg/injection, schedule: Q01DX009 (sc), vehicle: olive oil, sesame oil, peanut oil 108 % of control | dose: 400.0 mg/kg/injection, schedule: Q04DX003 (sc), vehicle: olive oil, sesame oil, peanut oil 97 % of control

C=CCNC(=O)Oc1cccc(NC(=O)C(C)CCC)c1 (configuration not stated)
inactive: [16] 101 % of control | [14] 95 % of control | [15] 108 % of control

O=C1OC(Cc2ccccc2)(c2ccccc2)c2ccccc21 (configuration not stated)
inactive: dose: 50.0 mg/kg/injection, schedule: Q01DX009 (ip), vehicle: saline with Tween-80 90 % of control | [16] 88 % of control | [14] 89 % of control

CCOP(=O)(Nc1ccc2c(c1)Cc1c-2cc(Cl)c(NC(C)=O)c1Cl)OCC
inactive: dose: 50.0 mg/kg/injection, schedule: Q01DX001 (ip), vehicle: carboxymethylcellulose (CMC) 97 % of control | [11] 92 % of control | [12] 94 % of control | [13] 92 % of control

COc1ccc(/C=C/C(=O)c2ccc(OC)c(OC)c2)cc1OC
inactive: [16] 100 % of control | [14] 105 % of control | [15] 102 % of control

O=C1CCCc2ccc(Br)cc21
inactive: [8] 99 % of control | [9] 96 % of control | [10] 99 % of control

CSc1ccc(NC(=O)Nc2ccc([N+](=O)[O-])cc2C)cc1
inactive: dose: 100.0 mg/kg/injection, schedule: Q04DX002 (ip), vehicle: saline with Tween-80 98 % of control | dose: 200.0 mg/kg/injection, schedule: Q04DX002 (ip), vehicle: saline with Tween-80 95 % of control | dose: 400.0 mg/kg/injection, schedule: Q04DX002 (ip), vehicle: saline with Tween-80 91 % of control

Reference: PubChem BioAssay AID248 (DTP/NCI, 2004)
